Here are results for one compound from US20040219201A1, “Tempamine compositions and methods of use” (priority 2001, published 2004).

The test system of data set [1] is M-109R (doxorubicin-resistant human breast carcinoma). Kind of data set: Cytotoxicity assay (methylene blue); tempamine alone or doxorubicin plus tempamine. It is filed as cell-based. As for the experimental part: As described in Example 1, the cytotoxicity of tempamine was determined on three cell lines, MCF-7 (human breast adenocarcinoma), M-109S (doxorubicin-sensitive human breast carcinoma), and M-109R (doxorubicin-resistant human breast carcinoma). The effect of free tempamine on cell proliferation was determined by a methylene blue assay as described in Example 1B.
In yet another aspect, the invention contemplates administration of tempamine in combination with chemotherapeutic agent. […] Doxorubicin was chosen as a model chemotherpeutic agent. The enhancement of doxorubicin cytotoxicity by tempamine was tested on three cell lines, as described in Example 1A. A cytotoxicity assay as described in Example 1B was used. Two of the cell lines, MCF-7 and M-109S, were doxorubicin-sensitive lines and one cell line, M-109R, was doxorubicin resistant. MCF-7 cells are more sensitive to tempamine (100 μM caused 75% growth inhibition), but are less sensitive to doxorubicin, than are M-109S cells.
MCF-7 (human breast adenocarcinoma), M-109S (doxorubicin-sensitive human breast carcinoma), and M-109R (doxorubicin-resistant human breast carcinoma) were maintained in RPMI medium (Biological Industries, Beit HaEmek, Israel) supplemented with 10% fetal calf serum (FCS). The cell lines were maintained under standard culture conditions at 37° C. in a humidified 5% CO2 atmosphere.
The effect of tempamine on cell proliferation was determined by the methylene blue assay (Horowitz, A. T., et al., Biochim BiophysActa. 1109:203, (1992)). Briefly, cells were seeded onto 96-well plates (MCF cells at a density of 6×10^3 cells per well, and M-109S and M-109R at a density of 1.5×10^3 cells per well) and allowed to grow for 24 hours prior to treatment with different concentrations of tempamine. After the addition of tempamine (5×10^−5 to 4×10^−4), the cells were incubated in RPMI +10% FCS for four days without change of medium. Then the cells were fixed with 2.5% glutaraldehyde, stained with methylene blue and assayed spectrophotometrically.

Data set [2] is described as follows: Percent encapsulation of tempamine in liposomes (EPR). The class given is physicochemical. The note with it: 0.2 mM TMN. The method, then: The amount of tempamine encapsulated in the liposomes was determined using EPR, as described in Example 3.
EPR spectrometry was employed to detect tempamine concentration using a JES-RE3X EPR spectrometer (JEOL Co., Japan) (Fuchs, J., et al., Free Radic. Biol. Med. 22:967-976, (1997)). Samples were drawn by a syringe into a gas-permeable Teflon capillary tube of 0.81 mm i.d. and 0.05 mm wall thickness (Zeus Industrial Products, Raritan, N.J., USA). The capillary tube was inserted into a 2.5-mm-i.d. quartz tube open at both ends, and placed in the EPR cavity. EPR spectra were recorded with center field set at 329 mT, 100 kHz modulation frequency, 0.1 mT modulation amplitude, and nonsaturating microwave power. […]
The amount of entrapped tempamine of liposomes prepared according to Example 2 was determined by the following procedure. First, the total tempamine in the post-loading liposome preparation (TMNmix) was measured. Then, the amount of tempamine in the post-loading liposome preparation in the presence of potassium ferricyanide, an EPR broadening agent that eliminates the signal of free (non-liposomal) tempamine, was measured. […] Then the total temparifine after releasing it from liposomes by nigericin (TMNnigencia) was measured. […]
The percent encapsulation and the quenching factor were calculated as follows: […]

A short description of data set [3]: Pharmacokinetics and biodistribution in C26 tumor-bearing BALB/c mice. It is filed as in vivo. As for the experimental part:
The pharmacokinetics and biodistribution of liposome-entrapped tempamine and of free tempamine were determined in healthy and in tumor-bearing mice. […] The liposome formulation included a lipid label to allow analysis of the distribution of the liposome lipids. The tempamine levels in blood and tissues were measured using the EPR technique set forth in the Methods section.
8 to 12-week-old BALB/c female mice, obtained through the Animal Breeding House of the Hebrew University (Jerusalem, Israel), were used throughout the study. Animals were housed at Hadassah Medical Center with food and water ad libitum. All procedures were in accordance with the standards required by the Institutional Animal Care and Use Cornmittee of the Hebrew University and Hadassah Medical Organization. Each mouse was injected with one inoculum of tumor cells (1×10^6 C26 cells) subcutaneously into the left flank. […] Phospholipid dose was 11 mg (14.7 μmole)/mouse (377 mg (514 μmole)/kg body weight). At 1, 4, 8, 24, and 48 hours after the injection, the animals were anesthetized with ether inhalation, bled by eye enucleation, and immediately sacrificed for removal of liver, lung, spleen, kidney, and tumor. Each time point consisted of 3 mice. Plasma was separated by centrifugation.
To measure the total tempamine concentration (encapsulated and free) in the organs, the liposomes were solubilized by homogenization in a Polytron homogenizer (Kinematica, Lutzern, Switzerland) in 2% Triton X-100 (1:2, organ:Triton X-100 solution). The homogenized mixture was cooled and heated several times to destroy the lipid membrane (Barenholz, Y., et al., in LIPOSOME TECHNOLOGY, G. Gregoriadis (Ed.), 2nd Edn., Vol. I, CRC Press, Boca Raton, pp. 527-616, (1993)). The plasma samples were mixed 1:1 with 2% Triton X-100 to give the 1% Triton X-100 in the tested sample and also cooled and heated several times. These conditions were effective to achieve a release of all entrapped tempamine from intact liposomes.
For deterrmination of the total concentration of nitroxide+hydroxylamine, potassium ferricyanide at a final concentration of 2-3 mM (depending on the tested tissue) was added to all the samples (plasma and organ homogenates) to oxidize the hydroxylamine to intact nitroxide.
From the samples prepared as described above in section F, duplicates of 100 μl were burned in a Sample Oxidizer (Model 307, Packard Instrument Co., Meridien, Conn.) and left overnight in a dark, cool place. The samples were then measured by β-counting (KONTRON Liquid Scintillation Counter).

As for `CC1(C)CC(N)CC(C)(C)N1[O]` [tempamine, 2,2,6,6-tetramethylpiperidine-4-amino-1-oxyl], the IC50 in data set [1] (Homo sapiens, read-out: IC50 (cytotoxicity)) is roughly 700 µM. In addition, the “cell sensitivity to doxorubicin” value in data set [1] (M-109R, addition of 200 μM tempamine) is listed as “enhanced cell sensitivity to doxorubicin”. Besides, the “% Encapsulation ± S.D.” value is on record as 84.1 ± 8.4^3% in data set [2] (liposomes with NH4+ gradient) and 6 ± 0.6% in data set [2] (liposomes without NH4+ gradient). Besides, the concentration at 4 h in data set [3] (female, BALB/c, mouse, intravenous, 18 mg/kg, free tempamine, 4 hour time point, read-out: tempamine level in other organs (detection minimum)) was less than 100 nM. Besides, the AUC in data set [3] (female, BALB/c, mouse, plasma, iv, tumor-bearing mice, 18 mg/kg i.v.) turned out to be 170 ± 5 µg·h/mL. In data set [3] (female, BALB/c, mouse, plasma, iv, tumor-bearing mice, 18 mg/kg i.v., read-out: CL (ml/h), clearance rate (converted)), the clearance was 3.2 mL/h. In data set [3] (female, BALB/c, mouse, plasma, iv, tumor-bearing mice, 18 mg/kg i.v., read-out: T1/2 (h), blood circulation half-life (converted)), the half-life is 0.15 ± 0.009 h. Further, the Vd in data set [3] (female, BALB/c, mouse, plasma, iv, tumor-bearing mice, 18 mg/kg i.v., read-out: Vss (ml), volume of distribution) worked out at 55 ± 15.7 mL. Moreover, the “tempamine in liver and spleen” value in data set [3] (free tempamine, 1 hour and 4 hours after injection) is on record as “traces”. Further, the “half-life of tempamine in plasma” value in data set [3] (mouse plasma) is reported as “several minutes”.
